A short description of data set [1]: Pharmacokinetics in cynomolgus monkeys after IV and PO administration. It counts as in vivo. The conditions noted are these: for Mutual transformation between the two axially chiral isomers in vivo: circulation system; for Vd: read-out: Apparent volume of distribution Vdss; for clearance: read-out: Clearance rate Cl; for half-life: read-out: Half-life T1/2 (converted); for C0: read-out: Initial concentration C0; for MRT inf: read-out: Residence time MRT0-inf; for Cmax: read-out: Peak concentration Cmax; for Tmax: read-out: Time to peak Tmax. The protocol:
24 healthy adult male cynomolgus monkeys were divided into 8 groups (there were IV and PO groups for each compound) with 3 animals per group.
An appropriate amount of the samples was weighted and dissolved in a certain amount of DMSO by ultrasound, followed by addition of PEG400 solution to obtain clear solutions (DMSO/PEG400/H2O (5/40/55)) of the compounds to be tested with a concentration of 2 mg/mL for IV administration.
An appropriate amount of the samples was weighted and dissolved in a certain amount of DMSO by ultrasound, followed by addition of 0.5% MC solution to obtain suspensions (DMSO/0.5% MC (5/95)) of the compounds to be tested with a concentration of 2 mg/mL for PO administration.
24 male cynomolgus monkeys were divided into 8 groups with 3 animals per group, and the drugs were administered through IV and PO after the animals had been fasting overnight. The dose for IV administration was 2 mg/kg and the dosing volume was 1 mL/kg; the dose for PO administration was 10 mg/kg and the dosing volume was 5 mL/kg.
In the IV administration groups, approximately 200 μL of blood was collected 0.083, 0.25, 0.5, 1, 2, 4, 6, 8, and 24 hours after administration; the collected blood samples were added into anticoagulation tubes containing K2-EDTA and centrifuged at 3000 rpm for 15 minutes; the plasma was isolated and stored at −80° C. In the PO administration groups, the blood was collected 0.25, 0.5, 1, 2, 4, 6, 8, and 24 hours after administration, and other operations were the same as in the IV administration group. After the plasma samples were pre-treated to precipitate the protein, the drug concentration in the plasma was determined by LC/MS/MS method. The linear range of the analysis method was 20.00-6000 nM. In PO administration group, urine was collected 0-24 hours after administration, and the drug concentration in the urine was determined by LC/MS/MS method. The linear range of the analysis method was 20.00-6000 nM.

For data set [2], the system named is human liver cells. The data set can be described thus: Metabolite detection after incubation in human liver cells for 120 minutes (LC-UV-MSn). It counts as in vitro ADME. The conditions noted are these: for UV area percentage: 10 μM. The protocol: The objective of this experiment is detect the metabolites of the compounds after incubation in human liver cells for 120 minutes using LC-UV-MS^n (n=1-2). After data collection, MetaboLynx™ software was used to analyze MS and MS^2 data.
After the cells were incubated with the samples for 2 hours, protein was precipitated using acetonitrile containing formic acid and then the mixture was centrifuged. The supernatant was taken out and blow-dried with nitrogen, and then redissolved and injected for analysis.

For data set [3] the following is noted: human, 0-144 hour, after lesinurad, cited from earlier work.
In data set [4] the target is T1, OAT-4 (Homo sapiens, UniProt Q9NSA0).
T1 construct: expressed in transfected cells; host or cells: MDCK (canine kidney) cells; the empty-vector control is pcDNA3.1
T1 sequence (Q9NSA0 1-550): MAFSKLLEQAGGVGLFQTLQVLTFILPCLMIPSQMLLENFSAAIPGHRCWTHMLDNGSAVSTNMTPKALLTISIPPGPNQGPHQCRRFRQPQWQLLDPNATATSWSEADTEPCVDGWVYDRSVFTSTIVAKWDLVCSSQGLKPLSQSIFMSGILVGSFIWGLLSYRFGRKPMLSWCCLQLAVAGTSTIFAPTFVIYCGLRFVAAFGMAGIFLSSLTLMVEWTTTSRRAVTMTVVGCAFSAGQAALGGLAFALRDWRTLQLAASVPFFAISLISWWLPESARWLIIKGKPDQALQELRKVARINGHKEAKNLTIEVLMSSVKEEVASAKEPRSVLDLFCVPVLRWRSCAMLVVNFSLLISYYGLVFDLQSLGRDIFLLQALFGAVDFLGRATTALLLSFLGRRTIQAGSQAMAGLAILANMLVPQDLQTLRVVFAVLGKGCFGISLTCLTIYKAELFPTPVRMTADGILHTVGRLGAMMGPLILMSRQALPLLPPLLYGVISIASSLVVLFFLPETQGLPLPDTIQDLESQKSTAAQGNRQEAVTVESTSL
The data set can be described thus: Inhibition of substrate uptake in MDCK cells overexpressing OAT-4. The class given is cell-based. The settings on record: MDCK-OAT4 cells.
Procedure: The IC50 values of the compounds in inhibiting reabsorption of specific substrates were determined using MDCK (canine kidney cell) cell line stably transfected with OAT-4 (organic anion transporter-4) gene.
The cell culture medium used in the intake inhibition experiment was DMEM (cell essential medium culture medium) supplemented with 10% FBS (containing penicillin and streptomycin). […] The cell suspensions were adjusted to obtain a density of 2.0-3.0×10^5 cells/mL with medium, and then inoculated into 24-well cell culture plates in an amount of 1 mL/well. The cells were cultured in an incubator with 5% CO2 and saturated air humidity at 37° C. for 2-3 days, after which the cells grew over the wells. […]
The uptake value of the transporter cells in the group containing only the radiolabeled substrate (deducting the uptake value U0 cells with empty vector in the background group) was defined as 100% (control, Uc), which was counted as a standard for the calculation of the percentage (%) of the intake value U (after deducting the background) in each administration group after adding the tested compounds against the intake value Uc in the control group, and the inhibitory rate (IR) of each concentration on the activity of the transporter was calculated to express the extent of the inhibitory effect of the compounds on the transporters. […]

In data set [5] the target is T2, URAT-1 (Homo sapiens, UniProt Q96S37).
T2 construct: expressed in transfected cells
T2 sequence (Q96S37 1-553): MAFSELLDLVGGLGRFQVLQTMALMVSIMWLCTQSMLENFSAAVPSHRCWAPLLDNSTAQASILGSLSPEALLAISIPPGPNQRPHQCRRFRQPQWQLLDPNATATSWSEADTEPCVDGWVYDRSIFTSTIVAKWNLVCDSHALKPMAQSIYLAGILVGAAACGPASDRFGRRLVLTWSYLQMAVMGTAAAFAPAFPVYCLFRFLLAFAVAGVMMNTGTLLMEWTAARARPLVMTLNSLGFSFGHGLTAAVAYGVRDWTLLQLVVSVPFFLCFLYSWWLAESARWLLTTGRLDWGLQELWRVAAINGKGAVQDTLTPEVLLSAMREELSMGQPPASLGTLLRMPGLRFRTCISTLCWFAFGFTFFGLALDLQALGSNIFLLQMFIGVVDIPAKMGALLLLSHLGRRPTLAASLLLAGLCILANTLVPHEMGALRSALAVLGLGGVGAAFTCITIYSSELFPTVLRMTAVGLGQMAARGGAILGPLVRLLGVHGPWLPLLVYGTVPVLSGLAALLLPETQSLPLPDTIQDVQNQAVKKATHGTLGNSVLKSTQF
The data set can be described thus: Inhibition of 14C-uric acid uptake in MDCK cells stably transfected with URAT-1 gene. The class given is cell-based. The conditions noted are these: MDCK cells stably transfected with URAT-1, substrate 14C-uric acid 50 μM; read-out: IC50 of the inhibitory effect on URAT-1.
Procedure: The IC50 values of the compounds in inhibiting uric acid reabsorption were determined using MDCK (canine kidney cell) cell line stably transfected with DRAT-1 (uric acid transporter) gene.
DRAT-1 (MDCK) cell line: MDCK cells stably transfected with URAT-1 gene.
Cell culture medium: MEM (minimum essential medium Eagle) medium supplemented with 10% FBS (fetal bovine serum), 1% sodium pyruvate and 250 μg/mL G418 (geneticin).
1) The supernatant of the cell culture medium was removed by aspiration and the cells were rinsed with 10 mL PBS (phosphate buffered saline solution).
2) Preheated trypsin was added into the rinsed cell culture flask, and then the flask was rotated to make the trypsin evenly cover the bottom of the flask and the cells were digested at room temperature.
3) 10-15 mL of culture medium was used to suspend the cells in each T150 flask. 0.1 mL of the cells was sucked out and 2-fold diluted with trypan blue solution, and then the cells were counted. […]
^14C labelled-uric acid solution was diluted and added into the cell plate to obtain a final concentration of 50 μM. […] After adding the scintillation liquid, the signal was read in a liquid scintillation counter Tri-Carb.
According to the luminescent data, the inhibitory effect of the compounds on URAT-1 was analyzed, and the percent inhibition was calculated. […]

A short description of data set [6]: Solid stability test of the crystal form A of compound 1. It counts as physicochemical. The settings on record: high temperature, high humidity and strong light. The source says:
Samples placed under high temperature and high humidity conditions were sealed with aluminum foil paper and small holes were punched in the aluminum foil paper to ensure that the sample could fully contact with ambient air; samples placed under strong light conditions were sealed with threaded caps. The samples placed under different conditions were sampled and tested on the 5th day and 10th day (XRPD and HPLC), and the test results were compared with the initial test results obtained on day 0.

Data set [7] relates to Liver cells. The settings on record: Monkey; cited from earlier work.
For data set [8], the system named is Liver cells. The conditions noted are these: Human; cited from earlier work.
In data set [9] the test system is Liver cells. The conditions noted are these: Dog; cited from earlier work.
In data set [10] the test system is Liver cells. The settings on record: Rat; cited from earlier work.
For data set [11] the following is noted: Liver microsomes, Monkey; cited from earlier work.
Setting [12] is: PO, 10 mg/kg, listed as Compound 1a (crystal form B).
The mark [13] stands for this setting: male, cynomolgus monkey, plasma, iv, 2 mg/kg, IV, 2 mg/kg.
Setting [14] is: male, cynomolgus monkey, plasma, po, 10 mg/kg, PO, 10 mg/kg.
The mark [15] stands for this setting: IV, 2 mg/kg, listed as Compound 1b (crystal form C).
[16] abbreviates: PO, 10 mg/kg, listed as Compound 1b (crystal form C).

Molecules are shown by their SMILES. Where two headings read alike, the source gives them in different places. Where only a bound is given, the exact number is not on record here.

Consider `O=C(O)CSc1nnc(Br)n1-c1c(Cl)cc(C2CC2)c2ccccc12` (single isomer, unassigned) [Compound 1a], for which the “Area under the curve AUG0-inf” value in data set [1] (IV, 2 mg/kg, listed as Compound 1a (crystal form B)) is 15.709 µM·h. In addition, in data set [1] (setting [12]), the “Area under the curve AUG0-inf” value came out at 89.77 µM·h; the “Bioavailability F” value was found to be 132%; the “Mean drug concentration in urine (0-24 h) Curine, 0-24 h” value (“Mean drug concentration in urine” below) was found to be 54.403 µM. The “Mutual transformation between the two axially chiral isomers in vivo” value in data set [1] was “no mutual transformation”. Further, in data set [1] (setting [13]), the Vd turned out to be 0.533 L/kg, the clearance is 4.88 mL/min/kg, the half-life was 3.39 h and the C0 worked out at 32 µM. Further, the MRT inf in [1] (setting [13]) came to 1.83 h. In [1] (setting [14]), the half-life is 4.1 h, the Cmax amounted to 22.6 µM, the MRT inf came out at 4.65 h and the Tmax worked out at 1.33 h. For the same compound, in data set [2], the Metabolite detection result is given as “no metabolite was detected” and the UV area percentage was 100%.

As to `O=C(O)CSc1nncn1-c1ccc(C2CC2)c2ccccc12` [Compound M2], the “Percentage of the administered dose” value in [3] (Faeces) is given as 4.8%; in data set [3] (Urine) it was 0.3%.

As for `O=C(O)CSc1nnc(Br)n1-c1c(Cl)cc(C2CC2)c2ccccc12` [Compound 1], the IC50 in data set [4] (substrate 3H-estrone ammonium sulfate, read-out: IC50 of the inhibition on OAT-4 transporting 3H-ES (3H-estrone ammonium sulfate)) stood at 17.1 µM. Besides, the 50% inhibitory concentration (IC50) in data set [4] (substrate 14C-uric acid, read-out: IC50 of the inhibition on OAT-4 transporting 14C-UA (14C-uric acid)) amounted to 7.92 µM. Further, the IC50 in [5] turned out to be 10.4 µM. For the same compound, the “Area under the curve AUG0-inf” value in data set [1] (IV, 2 mg/kg) came to 18.389 µM·h. In [1] (PO, 10 mg/kg), the “Area under the curve AUG0-inf” value is 120.062 µM·h and the “Mean drug concentration in urine” value was determined as 38.915 µM. Also, in data set [1] (setting [13]), the Vd worked out at 1.09 L/kg, the clearance was found to be 4.2 mL/min/kg, the half-life was 3.61 h and the C0 was found to be 42.2 µM. For the same compound, the MRT inf in data set [1] (setting [13]) is 4.01 h. Besides, the bioavailability in data set [1] (male, cynomolgus monkey, plasma, po, 10 mg/kg, PO, 10 mg/kg, read-out: Bioavailability F) stood at 131%. Further, in data set [1] (setting [14]), the half-life was 3.34 h, the Cmax came to 46.1 µM, the MRT inf was determined as 3.76 h and the Tmax came out at 0.83 h. Further, the “Solid stability (conclusion)” value in [6] is reported as “good stability”.

Consider `O=C(O)CSc1nncn1-c1ccc(C2(O)CC2)c2ccccc12` [Compound M5], for which the “Percentage of the administered dose” value in data set [3] (Faeces) was 3.6%.

As to `O=C(O)CSc1nnc(Br)n1-c1ccc(C2CC2)c2c1C=CC(O)C2O` (stereo not drawn) [Compound M4], the Amount of lesinurad and metabolites (Total 100) is 0.47% in data set [7], 5.69% in [8], “not detected” in [9] and “not detected” in data set [10]. Besides, the “Percentage of the administered dose” value is on record as 5.0% in [3] (Faeces) and 15.7% in data set [3] (Urine).

Regarding `O=C(O)CSc1nnc(Br)n1-c1c(Cl)cc(C2CC2)c2ccccc12` (single isomer, unassigned) [Compound 1b], the 50% inhibitory concentration (IC50) in [5] is more than 20 µM. In addition, in [1] (setting [15]), the “Apparent volume of distribution Vdss” value came to 0.661 L/kg, the “Area under the curve AUG0-inf” value was 16.092 µM·h, the “Clearance rate Cl” value worked out at 4.78 mL/min/kg and the “Half-life T1/2” value came to 4.28 h. Moreover, the “Residence time MRT0-inf” value in [1] (setting [15]) was found to be 2.34 h. In addition, the C0 in [1] (IV, 2 mg/kg, listed as Compound 1b (crystal form C), 2 mg/kg) amounted to 42.1 µM. In data set [1] (setting [16]), the “Area under the curve AUG0-inf” value turned out to be 62.456 µM·h, the “Bioavailability F” value is 77.6%, the “Half-life T1/2” value was found to be 4.46 h and the “Residence time MRT0-inf” value is given as 5.74 h. Also, in [1] (setting [16]), the “Time to peak Tmax” value came out at 2.33 h and the “Mean drug concentration in urine” value is 7.976 µM. Moreover, the Cmax in [1] (PO, 10 mg/kg, listed as Compound 1b (crystal form C), 10 mg/kg) came to 13.2 µM. Moreover, in data set [1], the “Mutual transformation between the two axially chiral isomers in vivo” value was “no mutual transformation”. Further, in data set [2], the Metabolite detection result is given as “no metabolite was detected” and the UV area percentage is listed as 100%.

Regarding `O=C(O)CSc1nnc(Br)n1-c1ccc(C2(O)CC2)c2ccccc12` [Compound M3], the Amount of lesinurad and metabolites (Total 100) in data set [11] is 7.9%; in data set [7] it was 1.45%; in data set [8] it was 2.24%; in data set [9], “not detected”; in data set [10], “not detected”. The results for the “Percentage of the administered dose” value in data set [3] (Faeces) and in data set [3] (Urine) were 0.3% and 12.0%, respectively.

(Values after patent publication US11352331B2, “Crystal and salt of 4-(naphthalen-1-yl)-4H-1,2,4-triazole compound and preparation method therefor” (MEDSHINE DISCOVERY INC., priority 2017, dated 2022).)
